# Measurements taken from PubChem BioAssay (NCI).
#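 Grown in 96-well plates, cells were treated for 48 hours with each compound at five concentrations. Insufficient inhibition: endpoint recorded as highest concentration tested. TGI marks complete inhibition of growth.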
# Assays:
# Experiment in all cases: NCI-60 cell line screen, 48 h
# SNB-78 CNS = system: SNB-78 CNS
# KM20L2 colon = system: KM20L2 colon
# DLD-1 colon = system: DLD-1 colon
# MOLT-4 leukemia = system: MOLT-4 leukemia
# XF 498 CNS = system: XF 498 CNS
# M19-MEL melanoma = system: M19-MEL melanoma
# DMS 273 small cell lung = system: DMS 273 small cell lung
# DMS 114 small cell lung = system: DMS 114 small cell lung
# HCC-2998 colon = system: HCC-2998 colon
# LXFL 529 NSCLC = system: LXFL 529 NSCLC
# CAKI-1 renal = system: CAKI-1 renal
# HL-60(TB) leukemia = system: HL-60(TB) leukemia
# SNB-19 CNS = system: SNB-19 CNS
# HOP-18 NSCLC = system: HOP-18 NSCLC
# RXF-631 renal = system: RXF-631 renal
# DU-145 prostate = system: DU-145 prostate
# HS 578T breast = system: HS 578T breast
# MDA-N = system: MDA-N
compound,measurement,setting,value
CCCN(CCCC(NC(C)=O)C(=O)NCc1ccccc1)C(=O)N(C)N=O (centres undefined),TGI,SNB-78 CNS,> 100 µM
same,TGI,KM20L2 colon,> 100 µM
same,TGI,DLD-1 colon,> 100 µM
same,TGI,MOLT-4 leukemia,> 100 µM
same,TGI,XF 498 CNS,> 100 µM
same,TGI,M19-MEL melanoma,> 100 µM
same,TGI,DMS 273 small cell lung,> 100 µM
same,TGI,DMS 114 small cell lung,> 100 µM
same,TGI,HCC-2998 colon,> 100 µM
same,TGI,LXFL 529 NSCLC,> 100 µM
same,TGI,CAKI-1 renal,> 100 µM
CC12CCC(=O)N1[C@@H](c1ccccc1)[C@@H](c1ccccc1)O2 (some centres undefined),TGI,KM20L2 colon,> 100 µM
same,TGI,DLD-1 colon,> 100 µM
same,TGI,MOLT-4 leukemia,> 100 µM
same,TGI,XF 498 CNS,> 100 µM
same,TGI,M19-MEL melanoma,> 100 µM
same,TGI,DMS 114 small cell lung,> 100 µM
same,TGI,HL-60(TB) leukemia,> 100 µM
same,TGI,HCC-2998 colon,> 100 µM
same,TGI,LXFL 529 NSCLC,> 100 µM
same,TGI,CAKI-1 renal,> 100 µM
same,TGI,SNB-19 CNS,> 100 µM
O=C1NC(=S)NC(=O)C1=Cc1ccc([N+](=O)[O-])o1,TGI,SNB-78 CNS,49.3 µM
same,TGI,KM20L2 colon,43.1 µM
same,TGI,DLD-1 colon,39 µM
same,TGI,HOP-18 NSCLC,35.3 µM
same,TGI,RXF-631 renal,33.5 µM
same,TGI,MOLT-4 leukemia,43.4 µM
same,TGI,XF 498 CNS,52.3 µM
same,TGI,M19-MEL melanoma,36.8 µM
same,TGI,DMS 273 small cell lung,37.8 µM
same,TGI,DMS 114 small cell lung,34.6 µM
same,TGI,HL-60(TB) leukemia,87.6 µM
same,TGI,HCC-2998 colon,> 100 µM
same,TGI,LXFL 529 NSCLC,30.5 µM
same,TGI,CAKI-1 renal,37 µM
same,TGI,SNB-19 CNS,> 100 µM
C=C(CN(C)C)C(=O)c1ccccc1,TGI,SNB-78 CNS,62.6 µM
same,TGI,DU-145 prostate,30.2 µM
same,TGI,KM20L2 colon,39.8 µM
same,TGI,DLD-1 colon,11.5 µM
same,TGI,HOP-18 NSCLC,14.8 µM
same,TGI,RXF-631 renal,48.5 µM
same,TGI,MOLT-4 leukemia,15.3 µM
same,TGI,XF 498 CNS,29.9 µM
same,TGI,M19-MEL melanoma,22.9 µM
same,TGI,DMS 273 small cell lung,39.2 µM
same,TGI,DMS 114 small cell lung,11.1 µM
same,TGI,HL-60(TB) leukemia,> 20.8 µM
same,TGI,HCC-2998 colon,32.7 µM
same,TGI,LXFL 529 NSCLC,5.64 µM
same,TGI,HS 578T breast,> 100 µM
same,TGI,CAKI-1 renal,16.8 µM
same,TGI,SNB-19 CNS,53.1 µM
same,TGI,MDA-N,28.1 µM
O=C1NC(=Nc2ccccc2Cl)N/C1=C\c1c(Cl)cccc1Cl,TGI,DU-145 prostate,> 100 µM
same,TGI,MOLT-4 leukemia,> 100 µM
same,TGI,HL-60(TB) leukemia,54.2 µM
same,TGI,HCC-2998 colon,55.3 µM
same,TGI,HS 578T breast,99 µM
same,TGI,CAKI-1 renal,> 100 µM
same,TGI,SNB-19 CNS,> 100 µM
same,TGI,MDA-N,> 100 µM
C=C(Cl)[C@](Cl)(CBr)CC[C@@H](Br)C(C)(C)Cl,TGI,DU-145 prostate,2.74 µM
same,TGI,MOLT-4 leukemia,31.9 µM
same,TGI,HL-60(TB) leukemia,2.06 µM
same,TGI,HCC-2998 colon,2.93 µM
same,TGI,HS 578T breast,1.41 µM
same,TGI,CAKI-1 renal,0.751 µM
same,TGI,SNB-19 CNS,3.27 µM
same,TGI,MDA-N,2.47 µM
O=C(N[C@H](CO)[C@H](O)c1ccc([N+](=O)[O-])cc1)C(Cl)Cl,TGI,DU-145 prostate,> 100 µM
same,TGI,KM20L2 colon,> 100 µM
same,TGI,DLD-1 colon,> 100 µM
same,TGI,MOLT-4 leukemia,> 100 µM
same,TGI,M19-MEL melanoma,> 100 µM
same,TGI,DMS 273 small cell lung,> 100 µM
same,TGI,DMS 114 small cell lung,> 100 µM
same,TGI,HL-60(TB) leukemia,> 100 µM
same,TGI,HCC-2998 colon,> 100 µM
same,TGI,LXFL 529 NSCLC,> 100 µM
same,TGI,CAKI-1 renal,> 100 µM
same,TGI,SNB-19 CNS,> 100 µM
same,TGI,MDA-N,> 100 µM
CSc1ccccc1NC1=NCCO1,TGI,DU-145 prostate,> 100 µM
same,TGI,MOLT-4 leukemia,> 100 µM
same,TGI,HL-60(TB) leukemia,> 100 µM
same,TGI,HCC-2998 colon,> 100 µM
same,TGI,HS 578T breast,> 100 µM
same,TGI,CAKI-1 renal,> 100 µM
same,TGI,SNB-19 CNS,> 100 µM
same,TGI,MDA-N,> 100 µM
Cc1cc(N(CCC#N)CCC#N)ccc1/C(Sc1ccccc1)=C(\NC(=O)/C=C/c1ccccc1)C(=O)Sc1ccccc1,TGI,SNB-78 CNS,24.6 µM
same,TGI,KM20L2 colon,8.09 µM
same,TGI,DLD-1 colon,9.95 µM
same,TGI,HOP-18 NSCLC,51.1 µM
same,TGI,RXF-631 renal,> 32.2 µM
same,TGI,MOLT-4 leukemia,8.27 µM
same,TGI,XF 498 CNS,30.4 µM
same,TGI,M19-MEL melanoma,14.7 µM
same,TGI,DMS 273 small cell lung,26.2 µM
same,TGI,DMS 114 small cell lung,4.53 µM
same,TGI,HL-60(TB) leukemia,5.08 µM
same,TGI,HCC-2998 colon,23.9 µM
same,TGI,LXFL 529 NSCLC,12.6 µM
same,TGI,CAKI-1 renal,12.1 µM
same,TGI,SNB-19 CNS,38.2 µM
COC(=O)c1cc(C#N)[nH]c1-c1ccc(Br)s1,TGI,DU-145 prostate,31.6 µM
same,TGI,MOLT-4 leukemia,64.9 µM
same,TGI,HL-60(TB) leukemia,36.5 µM
same,TGI,HCC-2998 colon,31.8 µM
same,TGI,HS 578T breast,20.8 µM
same,TGI,CAKI-1 renal,> 50.7 µM
same,TGI,SNB-19 CNS,22.3 µM
same,TGI,MDA-N,27.9 µM
Cc1cc(C(O)CCCc2ccccc2)cc(C)c1O (centres undefined),TGI,SNB-78 CNS,> 100 µM
same,TGI,KM20L2 colon,> 100 µM
same,TGI,HOP-18 NSCLC,> 100 µM
same,TGI,RXF-631 renal,> 100 µM
same,TGI,MOLT-4 leukemia,73.8 µM
same,TGI,M19-MEL melanoma,> 100 µM
same,TGI,DMS 114 small cell lung,> 100 µM
same,TGI,HL-60(TB) leukemia,41.9 µM
same,TGI,HCC-2998 colon,> 100 µM
same,TGI,LXFL 529 NSCLC,> 100 µM
same,TGI,SNB-19 CNS,67.2 µM
CCN(CC)CC(C(C)=O)C(c1ccccc1)c1c(O)c2ccccc2oc1=O (centres undefined),TGI,SNB-78 CNS,> 100 µM
same,TGI,KM20L2 colon,> 100 µM
same,TGI,DLD-1 colon,> 100 µM
same,TGI,HOP-18 NSCLC,> 100 µM
same,TGI,MOLT-4 leukemia,> 100 µM
same,TGI,XF 498 CNS,> 100 µM
same,TGI,M19-MEL melanoma,> 100 µM
same,TGI,DMS 273 small cell lung,> 100 µM
same,TGI,DMS 114 small cell lung,> 100 µM
same,TGI,HL-60(TB) leukemia,> 100 µM
same,TGI,HCC-2998 colon,> 100 µM
same,TGI,LXFL 529 NSCLC,> 100 µM
same,TGI,CAKI-1 renal,> 100 µM
same,TGI,SNB-19 CNS,> 100 µM
CCCCN(CCCC)CC(C(=O)Nc1ccc([N+](=O)[O-])cc1[N+](=O)[O-])/C(C)=N\NC(=O)c1ccncc1 (centres undefined),TGI,SNB-78 CNS,> 100 µM
same,TGI,KM20L2 colon,> 100 µM
same,TGI,DLD-1 colon,> 100 µM
same,TGI,RXF-631 renal,> 100 µM
same,TGI,MOLT-4 leukemia,> 100 µM
same,TGI,XF 498 CNS,> 100 µM
same,TGI,M19-MEL melanoma,> 100 µM
same,TGI,DMS 273 small cell lung,> 100 µM
same,TGI,DMS 114 small cell lung,> 100 µM
same,TGI,HL-60(TB) leukemia,> 100 µM
same,TGI,HCC-2998 colon,> 100 µM
same,TGI,LXFL 529 NSCLC,> 100 µM
same,TGI,CAKI-1 renal,> 100 µM
same,TGI,SNB-19 CNS,> 100 µM
